This is an account of results in paper PMC11050443, “Discovery of Strong 3-Nitro-2-Phenyl-2H-Chromene Analogues as Antitrypanosomal Agents and Inhibitors of Trypanosoma cruzi Glucokinase” (International Journal of Molecular Sciences, 2024).

In one data set the test system is T. cruzi. Also on record: method as in PMID 26778112. Particulars: cited from earlier work.
The target in data set [1] is T1, TcGlcK (Trypanosoma cruzi glucokinase) (Trypanosoma cruzi, UniProt Q4E4E1).
T1 construct: made in house; host or cells: Escherichia coli BL21(DE3)
T1 sequence (Q4E4E1 1-376): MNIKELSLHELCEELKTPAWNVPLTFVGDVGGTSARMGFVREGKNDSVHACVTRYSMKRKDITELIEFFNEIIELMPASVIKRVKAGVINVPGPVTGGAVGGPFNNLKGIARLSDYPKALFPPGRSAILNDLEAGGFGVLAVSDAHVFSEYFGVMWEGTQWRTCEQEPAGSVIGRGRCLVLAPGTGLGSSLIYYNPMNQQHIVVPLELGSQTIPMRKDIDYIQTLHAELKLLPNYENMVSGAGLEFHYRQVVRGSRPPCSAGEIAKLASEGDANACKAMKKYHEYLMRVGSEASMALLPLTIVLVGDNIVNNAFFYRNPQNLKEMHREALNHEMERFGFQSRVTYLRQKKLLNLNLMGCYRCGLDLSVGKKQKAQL
Description: TcGlcK primary screening assay (LmG6PDH-coupled, Dixon plots). The class given is biochemical. Particulars: Dixon plots; 0.4, 0.6, 0.8 mM D-glucose; N = 1 unless marked, N = 3 for compounds 1, 4, 9, 11. The procedure:
A primary screening assay was carried out for TcGlcK with the 3-nitro-2-phenyl-2H-chromene analogues. The data was subsequently processed for respective Ki values in order to assess enzyme inhibition. […] The primary screening assay was performed with the substrate D-glucose in various concentrations of 0.4 mM, 0.6 mM, and 0.8 mM to produce Dixon plots with different slopes. Each of the 3-nitro-2-phenyl-2H-chromene analogues were originally prepared at a working concentration of 1.0 mM and were dissolved in 100% DMSO. The final assay concentrations of the analogue compounds (inhibitors) ranged from 0.0–10.0 μM. The analogue compounds were pre-incubated with the enzyme system a minimum of 10 min prior to the initiation of the assay. The enzymatic reaction was carried out at room temperature (22 °C; temperature optimum) using ATP to initiate the reaction, and termination was performed after 120 s (time optimum) by stopping the reaction with the addition of an EDTA (pH 8.0) solution, to a final concentration of 100 mM. TcGlcK enzyme activity was analyzed for the production of NADPH. Each completed reaction mixture was added into a black, round-bottom microplate and scanned by a VANTAstar-F multi-mode microplate reader (BMG LABTECH, Inc.; Cary, NC, USA). The instrument was set to fluorescence mode and the wavelengths (λex = 340 nm; λem = 485 nm) were set to observe the relative fluorescence units of NADPH [40]. The enzyme-inhibition kinetics Ki value determination and the mode of inhibition was determined using the Cornish–Bowden Dixon Plot analysis method.

In another data set the test system is NIH-3T3 fibroblasts. Description: In vitro cytotoxicity assay of mammalian NIH-3T3 fibroblasts (Alamar blue). In kind it is cell-based. The following applies: NIH-3T3 fibroblast growth inhibition, host cell toxicity; 4 days; N = 3. The procedure:
The in vitro cell culturing of mammalian NIH-3T3 fibroblasts following treatment with inhibitors to assess for cytotoxicity has previously been described. DMEM lacking phenol red and supplemented with 2% FBS and 1% PSG was warmed up. NIH-3T3 cells were trypsinized, as described in the cell culture protocol. When cells became detached, they were harvested in DMEM lacking phenol red and including 2% FBS and 1% PSG. The cells were centrifuged at 1000 rpm for 5 min, the medium was discarded, and the cells were resuspended in fresh DMEM lacking phenol red and including 2% FBS and 1% PSG. The cells were centrifuged at 1000 rpm for 5 min, resuspended in the medium, counted, and diluted to 500,000 cells/mL. Dilution was accomplished by transferring the stock number of cells into a sterile basin and 100 μL of cells was added to each well of a transparent, sterile, flat-bottom, 96-well microplate (50,000 cells/well) using a multichannel pipette. The plate was placed into the incubator for 3 h to allow cells to attach. The 3-nitro-2-phenyl-2H-chromene compounds were thawed from −80 °C to room temperature. The compounds were prepared as 10.0 mM stock solutions in 100% DMSO. A volume of 2.0 μL of a given compound plus a volume of 98.0 μL of fresh media were both added to a well in the first row of the 96-well microplate; this was performed for each compound to be tested. The solutions were mixed with a micropipette, followed by the transfer of 100 μL to the next row and repeated. The compound solutions ranged from 0.0139–30.3 μM and this was accomplished by serial dilution using a 3-fold dilution. After incubation for 4 days, 10.0 μL of Alamar blue was added to each well. Absorbance readings were measured using a Victor Nivo multimode microplate reader (PerkinElmer, Inc.; Shelton, CT, USA) at λ = 590 nm. All measurements were performed in triplicate and TC50 determinations for percent growth inhibition were carried out using GraphPad Prism 10.0. The final volume per well of cells and a given compound was 100 μL and this volume became 110 μL after the addition of Alamar blue. The detergent SDS was used as a positive control and its final solution concentration was 0.1%. Three controls were carried out, as follows: (a) NIH-3T3 cells alone, (b) perished NIH-3T3 cells (NIH-3T3 cells in the presence of 0.1% SDS), and (c) the medium alone.

For data set [2], the target named is T2, LmG6PDH (Leuconostoc mesenteroides glucose-6-phosphate dehydrogenase) (Leuconostoc mesenteroides, UniProt P11411).
T2 construct: purchased Worthington Biochemical Corporation
T2 sequence (P11411 whole entry): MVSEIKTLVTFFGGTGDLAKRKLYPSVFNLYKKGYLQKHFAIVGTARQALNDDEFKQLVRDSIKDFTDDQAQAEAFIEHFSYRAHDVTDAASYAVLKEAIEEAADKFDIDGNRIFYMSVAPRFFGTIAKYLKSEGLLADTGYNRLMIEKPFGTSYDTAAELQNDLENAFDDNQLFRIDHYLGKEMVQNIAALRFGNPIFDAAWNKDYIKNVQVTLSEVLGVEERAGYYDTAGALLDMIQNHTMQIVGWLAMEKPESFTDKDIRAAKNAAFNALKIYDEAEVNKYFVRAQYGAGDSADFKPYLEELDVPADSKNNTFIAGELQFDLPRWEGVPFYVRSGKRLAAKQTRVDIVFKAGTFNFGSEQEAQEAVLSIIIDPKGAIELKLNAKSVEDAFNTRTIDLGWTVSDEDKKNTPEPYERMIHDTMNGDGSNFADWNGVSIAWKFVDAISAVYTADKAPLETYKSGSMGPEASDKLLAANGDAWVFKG
Description: Confirmatory assay on the LmG6PDH enzyme-coupled system. The following applies: N = 4. The class given is biochemical. The procedure:
Two criteria were examined in order to certify on-target confirmed hits: (a) the assessment of potential inhibition to the LmG6PDH enzyme-coupled system, and (b) the precision of the assay (per inhibitor), performed in quadruplicate (N = 4). Compounds were tested in quadruplicate in a black, round-bottom 96-well microplate in which wells were filled with a buffered solution (50 mM triethanolamine, 150 mM NaCl) amounting to a total volume of 206.5 μL that contained the following reagents at final assay concentrations: LmG6PDH (6.1 μg/mL), NADP^+ (0.54 mM), ATP (0.54 mM), MgCl2 (6.9 mM), DMSO (1.0% by vol.), D-glucose-6-phosphate (0.80 mM), and a 3-nitro-2-phenyl-2H-chromene analogue (20.0 μM). The analogue compounds were pre-incubated with the enzyme system a minimum of 10 min prior to the initiation of the assay. The enzymatic reactions were initiated and terminated similarly as described in the TcGlcK primary screen (vide supra). The production of NADPH was monitored using the VANTAstar-F multi-mode microplate reader set to fluorescent mode, λex = 340 nm and λem = 485 nm, over a 120-s timeframe.

The test system of data set [3] is T. brucei brucei (427 strain) bloodstream form. Description: In vitro T. brucei biological assay (Alamar blue). The class given is cell-based, Trypanosoma brucei brucei. Particulars: Trypanosoma brucei, 48 h, T. brucei brucei 427 strain bloodstream form growth inhibition; N = 3. The procedure: The in vitro cell culture preparation of T. brucei brucei (427 strain) trypomastigote bloodstream form followed by treatment with inhibitors has recently been described by Ajayi and colleagues. The 3-nitro-2-phenyl-2H-chromene compounds (inhibitors) that were prepared as 10.0 mM stock solutions in 100% DMSO were thawed from −80 °C to room temperature. HMI-9 medium [Iscove’s modification of DMEM supplemented with 10% FBS, 10% serum plus (SAFC), 0.05 mM bathocuproinesulfonate, 1.5 mM L-cysteine, 1.0 mM hypoxanthine, 0.2 mM β-mercaptoethanol, 0.16 mM thymidine, and 1.0 mM pyruvate] was prepared. In a sterile, round-bottom, 96-well microplate, 100 μL of HMI-9 medium was added to each well. A volume of 2.0 μL of a given compound plus a volume of 98.0 μL of fresh media were both added to a well in the first row of the 96-well microplate; this was performed for each compound to be tested. Solutions were mixed with a micropipette followed by transfer of 100 μL to the next row and repeated. The compound solutions ranged from 0.0781–10.0 μM and this was accomplished by serial dilution using a 2-fold dilution. T. brucei parasites were centrifuged for 10 min at 900× g (without centrifuge breaks). The media was carefully discarded by aspiration and the parasites were resuspended in warm media. Parasites were counted in a Newbauer chamber. Afterwards, the parasites were diluted to 50,000 cells/mL (5000 cells/well) and 100 μL was added to each well of the 96-well microplate using a multichannel pipette. After 48 h, 20.0 μL of Alamar blue was added to each well and the plate was placed into an incubator for 4 h at 37 °C. Fluorescence readings were measured using a Victor Nivo multimode microplate reader (PerkinElmer, Inc.; Shelton, CT, USA) at λex = 530 nm and λem = 590 nm. All measurements were performed in triplicate and IC50 determinations for percent growth inhibition were carried out using GraphPad Prism 10.0. The detergent SDS was used as a positive control and its final solution concentration was 0.5%. Three control experiments were performed, as follows: (a) parasites alone, (b) parasites and 0.5% SDS, and (c) the medium alone.

For the next data set, the target named is TcGlcK. The arrangement: method as in PMID 26778112. The following applies: competitive inhibitor, previous study; cited from earlier work.

Where two headings read alike, the source gives them in different places.

Take `O=C(Cn1ccnc1[N+](=O)[O-])NCc1ccccc1` [Benznidazole, benznidazole]: the IC50 with T. cruzi (benznidazole control, previous work, read-out: T. cruzi IC50) is 1120 ± 95 nM.

`O=[N+]([O-])C1=Cc2ccccc2OC1c1ccccc1Cl` (centres unmarked) [Compound 12, 2-(2-Chlorophenyl)-3-nitro-2H -chromene] displayed a Ki in data set [1] of 14000 nM. Moreover, the “NIH-3T3 TC50” value in the data set with NIH-3T3 fibroblasts came out at 10900 ± 1550 nM. In addition, the “LmG6PDH inhibitory effect (in words)” value in data set [2] (20 µM compound) is “did not observe any significant LmG6PDH inhibitory effects”. For the same compound, the inhibition at 20 µM in data set [2] (percentage of inhibition at 20 µM compound in comparison to controls, read-out: LmG6PDH Inh20) amounted to 8.6 ± 0.1%. In addition, the midpoint of inhibition in data set [3], the IC50, lay at 1670 ± 60 nM.

As for `O=C(N[C@H]1[C@@H](O)[C@H](O)C(CO)O[C@@H]1O)OCc1ccccc1` (some centres unmarked) [carboxybenzyl glucosamine], in the data set on T. cruzi (previous study, read-out: in vitro percent-growth-inhibition IC50 in T. cruzi culture), the IC50 is 48700 nM. Besides, at TcGlcK, the Ki is 710 nM.
